Values of other authors in US20130225581A1, “NITROGEN-CONTAINING AROMATIC HETEROCYCLIC DERIVATIVE” (KYOWA HAKKO KIRIN CO., LTD, priority 2010, published 2013).

Tested on: human gastric cancer tumor models

Compound	antitumor activities
COc1cc2c(Oc3ccc4[nH]c(C)cc4c3F)ncnc2cc1OCCCN1CCCC1 [AZD2171]	show antitumor activities
COc1cc2nccc(Oc3ccc(NC(=O)NC4CC4)c(Cl)c3)c2cc1C(N)=O [4-[3-chloro-4-(cyclopropylaminocarbonyl)aminophenoxy]-7-methoxy-6-quinolinecarboxamide]	show antitumor activities
